Data from patent US6465479B1, “Pyridomorphinans and use thereof” (Southern Research Institute, priority 1999, dated 2002).
Values joined by “and” are separate entries in the source; they are usually repeats but may differ in a detail not shown here. Equal entries are not always repeated. “Also recorded” adds a separate entry of the source. Where two headings read alike, the source gives them in different places.

Tests used:
male ICR mice [1] = test: 55° C. warm-water tail-flick test, antinociception; format: in vivo, mouse; conditions: for agonist character in tail-flick, i.c.v.: icv injection
Protocol: (§1) In the following examples, male ICR mice(20-30 grams) were used. […] The solution was brought up to approximately pH 5.5 with 1.74 M NaOH and then the final volume adjusted with distilled water. […] Additional compounds used in these studies were dissolved in distilled water (i.c.v. injections) or physiological saline (i.p. injections).
(§2) Antinociception was assessed using either the 55° C. warm-water tail-flick test or the acetic-acid writhing assay. […] Each mouse was first tested for baseline latency by immersing its tail in the water and recording the time to response. Mice not responding within 5 sec were excluded from further testing. Mice were then administered the test compound and tested for antinociception at 10, 20, 30, 45, 60 and 90 min post-injection. A maximum score was assigned (100%) to animals not responding within 15 sec to avoid tissue damage. Antinociception was calculated by the following formula: % antinociception=100×(test latency-control latency)/(15-control latency). For the acetic acid writhing test, mice were injected i.p. with 0.9% acetic acid. They were then placed in a clear Plexiglas observation jar and the number of abdominal writhes recorded for 15 min (Mogil et al., Heritability of nociception I: responses of 11 inbred mouse strains on 12 measures of nociception. Pain 80:67-82,1999). Percent antinociception was calculated using the formula: % MPE (maximum possible effect)=100−((#writhes individual mouse/mean # writhes control group)×100).

male ICR mice [2] = test: Acetic acid writhing assay, antinociception, tolerance and antagonist pretreatment; format: in vivo, mouse; conditions: for Repeated Injections A50 (95% C.I.) i.c.v. / Control A50 (95% C.I.) i.c.v. / Repeated Injections A50 (95% C.I.) i.p. / Control A50 (95% C.I.) i.p.: acetic acid writhing; for Repeated Injections A50 (95% C.I.) i.c.v. / Repeated Injections A50 (95% C.I.) i.p.: after A90 dose ×2 daily, 3 days; for Control A50 (95% C.I.) i.c.v. / Control A50 (95% C.I.) i.p.: control mice
Protocol: as §1, §2
Control mice received a vehicle injection (5 μl distilled water, i.c.v., −24 hr).

μ receptors = biological target: T1, μ receptors (Rattus norvegicus, UniProt P33535); test: μ opioid receptor binding, displacement of [3H]DAMGO in rat brain membranes; conditions: displacement of [3H]DAMGO (1.4-3.0 nM), read-out: K1 (nM) ± SEM μ
T1 construct: from tissue; host or cells: rat brain membranes
T1 sequence (P33535 whole entry): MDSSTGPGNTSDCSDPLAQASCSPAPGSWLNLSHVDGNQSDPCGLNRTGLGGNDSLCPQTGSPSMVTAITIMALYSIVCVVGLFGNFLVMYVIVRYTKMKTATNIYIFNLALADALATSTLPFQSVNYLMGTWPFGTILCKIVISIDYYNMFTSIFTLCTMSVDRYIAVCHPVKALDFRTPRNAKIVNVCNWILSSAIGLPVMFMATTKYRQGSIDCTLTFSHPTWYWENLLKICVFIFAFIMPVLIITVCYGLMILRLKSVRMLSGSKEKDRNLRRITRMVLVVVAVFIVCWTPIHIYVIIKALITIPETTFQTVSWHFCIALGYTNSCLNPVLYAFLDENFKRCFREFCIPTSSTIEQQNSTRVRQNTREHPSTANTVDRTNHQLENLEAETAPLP

mouse vas deferens (MVD) [3] = test: Opioid agonist activity in electrically stimulated mouse vas deferens (MVD); format: cell-based; conditions: percentage inhibition of contraction at 1 μM
Protocol: The opioid agonist and antagonist potencies were determined on the electrically stimulated mouse vas deferens (MVD) and guinea pig ileum (GPI) smooth muscle preparations.

guinea pig ileum (GPI) = test: Opioid agonist activity in electrically stimulated guinea pig ileum (GPI); format: cell-based
[4] = biological target: T2, delta-2 ([D-Ala2, Glu4]deltorphin) (Mus musculus, UniProt P32300); test: Antagonism of delta-2 agonist [D-Ala2, Glu4]deltorphin antinociception in the 55° C. tail-flick test; format: in vivo
T2 construct: male ICR mice(20-30 grams) were used; from tissue; host or cells: whole animal (male ICR mice), tail-flick test
T2 sequence (P32300 whole entry): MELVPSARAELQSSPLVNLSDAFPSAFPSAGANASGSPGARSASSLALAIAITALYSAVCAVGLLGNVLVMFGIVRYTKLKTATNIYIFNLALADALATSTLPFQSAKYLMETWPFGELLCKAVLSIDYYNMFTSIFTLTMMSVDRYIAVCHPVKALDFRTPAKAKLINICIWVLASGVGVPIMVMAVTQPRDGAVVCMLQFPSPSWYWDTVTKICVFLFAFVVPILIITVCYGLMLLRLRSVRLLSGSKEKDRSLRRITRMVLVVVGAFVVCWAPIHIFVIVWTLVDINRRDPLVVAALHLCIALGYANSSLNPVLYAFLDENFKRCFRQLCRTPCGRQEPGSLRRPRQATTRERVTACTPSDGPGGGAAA
Protocol: as §2
(§3) Mice were then injected with A90 doses of selective mu, delta or kappa agonists and antinociception was assessed in the 55° C. tail-flick test.

delta-1 (DPDPE) = biological target: T3, delta-1 (DPDPE) (Mus musculus, UniProt P32300); test: Antagonism of delta-1 agonist DPDPE antinociception in the 55° C. tail-flick test; format: in vivo
T3 construct: male ICR mice(20-30 grams) were used; from tissue; host or cells: whole animal (male ICR mice), tail-flick test
T3 sequence (P32300 whole entry): as above
Protocol: as §2, §3

mu (DAMGO) = biological target: T4, mu (DAMGO) (Mus musculus, UniProt P42866); test: Antagonism of mu agonist DAMGO antinociception in the 55° C. tail-flick test; format: in vivo
T4 construct: male ICR mice(20-30 grams) were used; from tissue; host or cells: whole animal (male ICR mice), tail-flick test
T4 sequence (P42866 whole entry): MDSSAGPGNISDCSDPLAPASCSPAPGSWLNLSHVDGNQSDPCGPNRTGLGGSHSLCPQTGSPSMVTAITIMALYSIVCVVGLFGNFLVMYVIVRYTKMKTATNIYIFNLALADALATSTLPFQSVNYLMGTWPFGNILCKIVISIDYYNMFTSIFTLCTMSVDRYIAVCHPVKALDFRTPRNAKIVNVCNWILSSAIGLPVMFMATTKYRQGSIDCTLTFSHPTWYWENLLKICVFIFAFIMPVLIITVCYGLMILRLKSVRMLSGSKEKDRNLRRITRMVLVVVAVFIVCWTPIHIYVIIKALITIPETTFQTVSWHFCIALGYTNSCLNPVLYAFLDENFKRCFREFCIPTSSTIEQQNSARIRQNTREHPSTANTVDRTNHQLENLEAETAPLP
Protocol: as §2, §3

kappa (U69,593) = biological target: T5, kappa (U69,593) (Mus musculus, UniProt P33534); test: Antagonism of kappa agonist U69,593 antinociception in the 55° C. tail-flick test; format: in vivo
T5 construct: male ICR mice(20-30 grams) were used; from tissue; host or cells: whole animal (male ICR mice), tail-flick test
T5 sequence (P33534 whole entry): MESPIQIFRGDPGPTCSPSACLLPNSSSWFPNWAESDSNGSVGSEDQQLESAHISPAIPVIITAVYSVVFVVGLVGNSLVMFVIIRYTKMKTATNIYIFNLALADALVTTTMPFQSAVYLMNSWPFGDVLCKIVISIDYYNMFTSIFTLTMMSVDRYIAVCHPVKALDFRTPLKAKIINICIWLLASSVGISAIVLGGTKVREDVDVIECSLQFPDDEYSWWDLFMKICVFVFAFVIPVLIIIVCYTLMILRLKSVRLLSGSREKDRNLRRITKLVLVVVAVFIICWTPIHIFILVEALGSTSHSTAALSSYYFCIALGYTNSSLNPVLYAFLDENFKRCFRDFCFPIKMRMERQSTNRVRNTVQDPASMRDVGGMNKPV
Protocol: as §2, §3

δ receptors = δ receptors (Rattus norvegicus, UniProt P33533); conditions: read-out: K1 (nM) ± SEM δ; displacement of [3H]DADLE (1.3-2.0 nM), rat brain membranes, 100 nM DAMGO to block μ sites
Chain of δ receptors (P33533 whole entry): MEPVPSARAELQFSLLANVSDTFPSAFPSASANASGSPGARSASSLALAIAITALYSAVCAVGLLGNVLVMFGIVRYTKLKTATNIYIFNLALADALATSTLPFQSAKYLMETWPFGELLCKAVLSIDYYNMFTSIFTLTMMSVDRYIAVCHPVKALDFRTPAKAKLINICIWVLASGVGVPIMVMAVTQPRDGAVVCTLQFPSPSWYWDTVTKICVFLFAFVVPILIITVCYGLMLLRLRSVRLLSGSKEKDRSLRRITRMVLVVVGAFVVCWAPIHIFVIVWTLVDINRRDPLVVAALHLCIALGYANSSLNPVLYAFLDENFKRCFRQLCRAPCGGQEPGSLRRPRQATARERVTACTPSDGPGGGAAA

κ receptors = κ receptors (Cavia porcellus, UniProt P41144); conditions: read-out: K1 (nM) ± SEM K1 (κ); displacement of [3H]U69,593 (1.2-[…]), guinea pig brain membranes
Chain of κ receptors (P41144 whole entry): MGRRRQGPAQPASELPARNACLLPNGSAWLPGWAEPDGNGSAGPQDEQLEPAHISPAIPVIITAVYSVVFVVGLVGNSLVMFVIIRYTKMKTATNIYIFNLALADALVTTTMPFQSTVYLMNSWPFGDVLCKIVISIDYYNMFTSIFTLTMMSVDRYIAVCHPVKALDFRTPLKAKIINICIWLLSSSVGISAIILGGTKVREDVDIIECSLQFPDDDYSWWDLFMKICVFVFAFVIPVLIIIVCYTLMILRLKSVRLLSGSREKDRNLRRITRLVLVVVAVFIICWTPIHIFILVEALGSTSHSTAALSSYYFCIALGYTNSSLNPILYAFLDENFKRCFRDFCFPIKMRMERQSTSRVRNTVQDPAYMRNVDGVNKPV

mice = test: Overt signs of toxicity in mice during the antinociceptive studies; conditions: dose ranges tested
morphine pretreated mice = test: Acute morphine physical dependence, precipitated withdrawal (vertical jumps)
[5] = biological target: T6, δ opioid receptor (DPDPE) in the MVD preparation (Mus musculus, UniProt P32300); conditions: data from published sources; cited from earlier work
T6 construct: electrically stimulated mouse vas deferens (MVD) and guinea pig ileum (GPI) smooth muscle preparations; from tissue; host or cells: mouse vas deferens
T6 sequence (P32300 whole entry): as the sequence (P32300 whole entry) above

mouse vas deferens (MVD) [6] = conditions: percentage inhibition of contraction at 1 μM; data from published sources; cited from earlier work
[7] = test system: μ opioid receptor (PL-017) in the GPI preparation; conditions: data from published sources; cited from earlier work

Structure (SMILES): CN1CC[C@]23c4c5ccc(O)c4O[C@H]2[C@@H](O)C=C[C@H]3[C@H]1C5 [morphine, reference compound]
- A50 tail-flick i.c.v. (male ICR mice [1]; 55° C. tail-flick, mice): 2.94 nmol and 1.7 nmol
- A50 tail-flick i.p. (male ICR mice [1]; 55° C. tail-flick, i.p., mice): 8.0 mg/kg
- agonist character in tail-flick, i.c.v. (male ICR mice [1]; 55° C. tail-flick): full agonist effect
- Repeated Injections A50 (95% C.I.) i.c.v. (male ICR mice [2]): 0.05 nmol (0.03-0.08
- Control A50 (95% C.I.) i.c.v. (male ICR mice [2]): 0.004 nmol
- Control A50 (95% C.I.) i.c.v. (male ICR mice [2]; listed as Morphine): 0.004 nmol (0.003-0.006
- Repeated Injections A50 (95% C.I.) i.p. (male ICR mice [2]): 4.78 mg/kg (3.7-6.2
- Control A50 (95% C.I.) i.p. (male ICR mice [2]): 2.2 mg/kg (1.8-2.7

Structure (SMILES): Oc1ccc2c3c1O[C@H]1c4ncc(-c5ccc(Cl)cc5)cc4C[C@@]4(O)[C@@H](C2)N(CC2CC2)CC[C@]314 [Compound 6d, 5′-(4-Chlorophenyl)-17-(Cyclopropylmethyl)-6,7-didehydro-3,14-dihydroxy-4,5α-epoxypyrido[2′3′:6,7]morphinan]
- Ki (μ receptors): 51 ± 8 nM
- agonist activity MVD % max resp (mouse vas deferens (MVD) [3]): 21%
- agonist character in the GPI (guinea pig ileum (GPI)): full agonist
- IC50 (guinea pig ileum (GPI); Cavia porcellus, agonist): 163 nM
- % MPE tail flick (male ICR mice [1]; 100 nmol i.c.v., mice): 40.3 % MPE
- A50 tail-flick i.c.v. (male ICR mice [1]; 55° C. tail-flick, mice): greater than 100 nmol
- agonist character in tail-flick, i.c.v. (male ICR mice [1]; 55° C. tail-flick): only partial agonist effects
- antinociceptive effect in tail flick, i.p. (male ICR mice [1]; i.p., doses up to 60 mg/kg): no measurable antinociceptive effect
- number of writhes (male ICR mice [2]; 30 nmol i.c.v. (A90), vs vehicle, p<0.001): significantly decreased the number of writhes
- Repeated Injections A50 (95% C.I.) i.c.v. (male ICR mice [2]): 10.9 nmol (7.2-16.5
- Repeated Injections A50 (95% C.I.) i.p. (male ICR mice [2]): 3.85 mg/kg (0.9-16.0
- Control A50 (95% C.I.) i.p. (male ICR mice [2]): 4.6 mg/kg (2.5-8.6
- agonist character in acetic acid writhing, i.c.v. (male ICR mice [2]; icv injection): full agonist activity
- blockade of antinociception by delta or kappa antagonist pretreatment (male ICR mice [2]; naltrindole 20 mg/kg i.p. -20 min (p>0.99) or nor-BNI 1 nmol i.c.v. -24 hr (p>0.13), 6d 30 nmol i.c.v.): not by naltrindole (p>0.99) or nor-BNI
- blockade of antinociception by mu antagonist pretreatment (male ICR mice [2]; β-FNA 19 nmol i.c.v. -24 hr, 6d 30 nmol i.c.v., p<0.002): blocked by pre-treatment with β-FNA
- antagonism of delta-2 agonist, in words ([4]; i.p.): potently antagonized
- ID50 (mg/kg) against [D-Ala2, Glu4]deltorphin ([4]; i.p. pretreatment -20 min, A90 i.c.v. agonist 20 nmol): 3.4 mg/kg
- ID50 (mg/kg) against DPDPE (delta-1 (DPDPE); i.p. pretreatment -20 min, A90 i.c.v. agonist 30 nmol): 15.3 mg/kg
- antagonism of delta-1 agonist DPDPE, in words (delta-1 (DPDPE); i.p., compared with delta-2): much less potent
- ID50 (mg/kg) against DAMGO (mu (DAMGO); i.p. pretreatment -20 min, A90 i.c.v. agonist 0.1 nmol): 28.9 mg/kg
- antagonism of mu agonist DAMGO, in words (mu (DAMGO); i.p., compared with delta-2): much less potent
- ID50 (mg/kg) against U69,593 (kappa (U69,593); i.p. pretreatment -20 min, A90 i.c.v. agonist 60 nmol, tail-flick): >60 mg/kg
- effect on antinociception of kappa agonist U69,593, in words (kappa (U69,593); i.p., doses of up to 60 mg/kg): did not affect
- Ki (δ receptors): 2.2 ± 0.16 nM
- Ki (κ receptors): 20 ± 1.04 nM
- overt signs of toxicity (mice): did not display any overt signs of toxicity
- vertical jumps precipitated in morphine pretreated mice (morphine pretreated mice; 10 mg/kg i.p., 4 hr after morphine 100 mg/kg, vs naloxone 10 mg/kg i.p., p<0.001): significantly less vertical jumps than naloxone injection
- attenuation of naloxone precipitated withdrawal (jumps) (morphine pretreated mice; coadministration 6d 10 mg/kg i.p. + naloxone 10 mg/kg i.p., p<0.05): significantly less jumps than naloxone alone; also recorded: attenuated opioid withdrawal

Structure (SMILES): Oc1ccc2c3c1O[C@H]1c4[nH]c5ccccc5c4C[C@@]4(O)[C@@H](C2)N(CC2CC2)CC[C@]314 [naltrindole]
- Ki (δ receptors): 0.41 ± 0.09 nM
- Ki (κ receptors): 35.8 ± 4 nM
- antagonist activity DPDPE (δ) Ke [5]: 0.49 nM
- agonist activity MVD % max resp (mouse vas deferens (MVD) [6]): 16%
- antagonist activity PL-017 (μ) Ke [7]: 43 nM
